# Patent US6664083B2, “Methods for racemizing N-acylamino acids and producing optically active amino acids” (Daichel Chemical Industries, Ltd., priority 2000, dated 2003)
# Where two headings read alike, the source gives them in different places.
# Tests used:
# Format in all cases: biochemical, Sebekia benihana
# [1] = tested on: N-acylamino acid racemase; assay: Influence of inhibitors on N-acylamino acid racemase activity
# Experimental: (§1) The activity of N-acylamino acid racemase was measured by the following method.
# (§2) To this reaction solution, 50 μl of enzyme solution was added, and the 500 μl of the mixture was allowed to react for 5 minutes (or for several ten minutes if the activity was low) at 30° C., followed by heating at 100° C. for 3 minutes to stop the reaction. Subsequently, 3 U of L-amino acylase were added to the mixture, and incubated for 1 hour at 30° C. The mixture was then heated at 100° C. for 3 minutes to stop the reaction.
# (§3) The amount of L-methionine produced was measured by TNBS method after the reaction was stopped. The enzyme activity was defined as 1 unit (U) when 1 μmole of N-acetyl-L-methionine was produced from N-acetyl-D-methionine in a minute.
# Influence of various enzyme inhibitors on N-acylamino acid racemase was examined in the enzymatic activity assay in which each inhibitor was added to the reaction solution at the final concentration of 1 mM. The mixture was incubated for 10 minutes at 30° C., using the reaction solution without any inhibitors as a control. […] For EDTA, enzyme activity was measured at a final concentration of 5 mM as well as 1 mM.
# [2] = tested on: N-acylamino acid racemase; assay: Influence of metal ions on N-acylamino acid racemase activity; settings: for Relative activity (%): metal ion 1 mM instead of cobalt chloride, 5 minutes at 30° C., activity in the presence of Co taken as 100
# Experimental: as §1, §2, §3
# Influence of various metal ions on N-acylamino acid racemase was examined in the enzymatic activity assay in which cobalt chloride (final concentration 1 mM) to be added was omitted from the reaction solution and instead each ion was added to the reaction at a final concentration of 1 mM. The mixture was incubated for 5 minutes at 30° C., and the amount of L-methionine produced was measured to determine the effect of each metal ion on the N-acylamino acid racemase, using the reaciton solution without any metal ions as a control. The enzyme activities were represented as relative activities, taking the activity in the presence of Co as 100.
# [3] = tested on: N-acylamino acid racemase; assay: Substrate specificity of N-acylamino acid racemase (enzyme activity assay, TNBS method); settings: substrate 20 mM, 1 mM cobalt chloride, pH 7.5, 30° C.; activity on N-acetyl-D-methionine taken as 100
# Experimental: The activity of N-acylamino acid racemase was measured by the following method. First, the following reaction solution was prepared. [table] […] Subsequently, 3 U of L-amino acylase were added to the mixture, and incubated for 1 hour at 30° C. The mixture was then heated at 100° C. for 3 minutes to stop the reaction. The amount of L-methionine produced was measured by TNBS method after the reaction was stopped. […] Substrate specificity was determined by measuring enzyme activities according to the above-mentioned enzyme assay, with varying the substrate in the reaction.
# [4] = tested on: N-acylamino acid racemase; assay: Racemization of N-acetyltryptophan by N-acylamino acid racemase, optical purity by chiral HPLC; settings: 0.5% substrate, 1 U NAAR, pH 6.5, 30° C. overnight
# Experimental: A reaction solution containing 100 mM potassium phosphate buffer (pH 6.5), 1 U of the N-acylamino acid racemase, and 0.5% N-acetyl-L-tryptophan or N-acetyl-D-tryptophan was incubated at 30° C. overnight. Racemization was verified by measuring optical purity of tryptophan in the reaction solution by HPLC. The optical purity of N-acetyltryptophan was determined as follows. N-acetyltryptophan was extracted from the reaction solution with methyl ethyl ketone. After the solvent was removed, the reaction product was resolved by liquid chromatography using an optical resolution column. The measurement was carried out at room temperature, using CHIRALPAK WH (DAICEL CHEMICAL INDUSTRIES, LTD.) as the optical resolution column, and aqueous solution of 0.25 mM cupric sulfate as eluent (flow rate, 1 ml/min; detection wavelength, 254 nm) to determine the quantity and optical purity. As a result, it was shown that N-acetyltryptophan produced from either N-acetyl-L-tryptophan or N-acetyl-D-tryptophan by the method of the present invention was a racemate with optical purity of nearly 0% ee at the end of the reaction.
# [5] = inhibitor 1 mM, 10 minutes at 30° C., activity in the absence of inhibitors taken as 100
Compound,"Relative activity (%) [1, 5] [%]",Relative activity (%) [2] [%],further results
O[C@H](CS)[C@H](O)CS (racemic) [dithiothreitol],84,–,–
"O=C(NNc1ccccc1)NNc1ccccc1 [1,5-Diphenylcarbonohydrazide]",68,–,–
"c1ccc(-c2ccccn2)nc1 [2,2′-Bipyridyl]",55,–,–
O.O.[Ba+2].[Cl-].[Cl-] [BaCl2.2H2O],–,14,–
O.O.[Ca+2].[Cl-].[Cl-] [CaCl2.2H2O],–,12,–
O.O.O.O.O.O.[Cl-].[Cl-].[Co+2] [CoCl2.6H2O],–,100,effect of metal ion on NAAR activity ([2]; 1 mM): effect of activation
O.O.[Cl][Cu][Cl] [CuCl2.2H2O],–,3,–
O=C(O)CN(CCN(CC(=O)O)CC(=O)O)CC(=O)O [EDTA],10,–,"Relative activity (%) ([1]; inhibitor 10 mM (table), 10 minutes at 30° C., activity in the absence of inhibitors taken as 100): 0%; NAAR activity inhibited ([1]; result in words): inhibited"
[Cl][Fe][Cl] [FeCl2.nH2O],–,34,–
O.O.O.O.O.O.[Cl-].[Cl-].[Cl-].[Fe+3] [FeCl3.6H2O],–,6,–
NN.O=S(=O)(O)O [Hydrazinium Sulfate],69,–,–
NO [Hydroxylammonium chloride],88,–,–
[Cl-].[K+] [KCl],–,16,–
[I-].[K+] [KI],97,–,–
O.O.O.O.O.O.[Cl-].[Cl-].[Mg+2] [MgCl2.6H2O],–,27,–
O.O.O.O.[Cl][Mn][Cl] [MnCl2.4H2O],–,60,–
O=C(O)CI [Monoiodoacetic acid],–,–,NAAR activity inhibited [1]: inhibited; Relative activity (%) [1]: 22%
CC(=O)N[C@H](C(=O)O)C(C)C [N-acctylvaline],–,–,Relative activity (%) [3]: 146%

Compound,"Relative activity (%) [1, 5] [%]",Relative activity (%) [2] [%],further results
CC(=O)N[C@H](Cc1c[nH]c2ccccc12)C(=O)O [N-acetyl-D-tryptophan],–,–,optical purity of N-acetyltryptophan at the end of the reaction [4]: ~0 % ee
CC(=O)N[C@@H](Cc1c[nH]c2ccccc12)C(=O)O [N-acetyl-L-tryptophan],–,–,optical purity of N-acetyltryptophan at the end of the reaction [4]: ~0 % ee
CC(=O)N[C@@H](C)C(=O)O [N-acetylalanine],–,–,Relative activity (%) [3]: 86%
CC(=O)N[C@@H](CC(=O)O)C(=O)O [N-acetylaspartic acid],–,–,Relative activity (%) [3]: 68%
CC(=O)N[C@@H](CC(C)C)C(=O)O [N-acetylleucine],–,–,Relative activity (%) [3]: 78%
CSCC[C@H](NC(C)=O)C(=O)O [N-acetylmethionine],–,–,Relative activity (%) [3]: 100%
CC(=O)N[C@@H](Cc1ccccc1)C(=O)O [N-acetylphenylalanine],–,–,Relative activity (%) [3]: 74%
CC(=O)N[C@@H](Cc1c[nH]c2ccccc12)C(=O)O [N-acetyltryptophan],–,–,Relative activity (%) [3]: 69%
CCN1C(=O)C=CC1=O [N-ethylmaleimide],96,–,–
[Cl-].[Na+] [NaCl],–,17,–
[F-].[Na+] [NaF],94,–,–
O.O.O.O.O.O.[Cl][Ni][Cl] [NiCl2.6H2O],–,37,–
O.O.[Cl][Sn][Cl] [SnCl2.2H2O],–,9,–
[Cl-].[Cl-].[Zn+2] [ZnCl2],–,20,–
O=C(O)c1cc[c]([Hg][Cl])cc1 [p-chloromercuribenzoic acid],11,–,NAAR activity inhibited ([1]; result in words): inhibited
O=S(=O)(F)Cc1ccccc1 [phenylmethanesulfonyl fluoride],84,–,–
Al2(SO4)3.14˜18H2O,–,3,–
